A short description of data set [1]: Evaluation of molecule stability (alkali treatment, residual rate by LC/MS). In kind it is physicochemical. The settings on record: for Performance evaluation: Stability (residual rate of cyclic peptide after alkali treatment): 500 μM peptide aqueous solution plus equivalent of 1 M sodium hydroxide, 15° C., 3 hours, LC/MS peak area; for Stability (molecule stability, residual rate of the cyclic peptide rank): alkali treatment, residual rate by LC/MS. The method, boiled down: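 Stability read as percent of summed LC/MS peak area remaining versus untreated peptide (C18, 45 °C, 10 mM ammonium formate pH 3, ESI positive/negative). Treatment: 500 μM peptide in water plus an equivalent of 1 M NaOH, 15 °C for 3 hours.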

Data set [2] addresses human integrin αvβ5 (Homo sapiens, UniProt P06756+P18084). Briefly: Evaluation of integrin binding property (surface plasmon resonance, Biacore 3000, immobilized cyclic peptide). A digest of the protocol: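 Human αvβ5 (30-1,000 nM) flowed for 10 min at 25 °C over immobilized cyclic peptide in 20 mM HEPES, 150 mM NaCl, 5 mM MgCl2, pH 7.4, followed by 30 min running buffer and 0.5 M EDTA regeneration. Dissociation constant from peptide minus unimmobilized channel, scored into standard grades.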
For orientation: In SPR one partner is held on a chip, and binding of the other changes the refractive index at the surface.

The mark [3] stands for this setting: SPR, 25° C., HEPES buffer with 5 mM magnesium chloride, integrin 30-1,000 nM, read-out: Performance evaluation: Binding activity (dissociation constant between the cyclic peptide and human integrin αvβ5).
The mark [4] stands for this setting: surface plasmon resonance, immobilized cyclic peptide, human integrin αvβ5, read-out: Binding activity (integrin binding property, dissociation constant rank).

SMILES strings stand for the structures. Like-named read-outs stand apart in the source and are kept apart here. Starred links: 1 amine or outer side, 2 acyl side, 3 side chain; linkers in the order of their positions; H or OH if unused. Positions of bridges follow the written chain, without caps; N, C: chain ends. Non-standard residues stand in square brackets, D forms with d. Residues, ends and D or L forms follow the SMILES beside them. Pen = CC(C)(S)[C@H](N)C(=O)O; hCys = N[C@@H](CCS)C(=O)O; Dab = NCC[C@H](N)C(=O)O; Dap = NC[C@H](N)C(=O)O; X2 = O=C(C[*:1])[*:2]

Sequence of human integrin αvβ5 (P06756 31-1048): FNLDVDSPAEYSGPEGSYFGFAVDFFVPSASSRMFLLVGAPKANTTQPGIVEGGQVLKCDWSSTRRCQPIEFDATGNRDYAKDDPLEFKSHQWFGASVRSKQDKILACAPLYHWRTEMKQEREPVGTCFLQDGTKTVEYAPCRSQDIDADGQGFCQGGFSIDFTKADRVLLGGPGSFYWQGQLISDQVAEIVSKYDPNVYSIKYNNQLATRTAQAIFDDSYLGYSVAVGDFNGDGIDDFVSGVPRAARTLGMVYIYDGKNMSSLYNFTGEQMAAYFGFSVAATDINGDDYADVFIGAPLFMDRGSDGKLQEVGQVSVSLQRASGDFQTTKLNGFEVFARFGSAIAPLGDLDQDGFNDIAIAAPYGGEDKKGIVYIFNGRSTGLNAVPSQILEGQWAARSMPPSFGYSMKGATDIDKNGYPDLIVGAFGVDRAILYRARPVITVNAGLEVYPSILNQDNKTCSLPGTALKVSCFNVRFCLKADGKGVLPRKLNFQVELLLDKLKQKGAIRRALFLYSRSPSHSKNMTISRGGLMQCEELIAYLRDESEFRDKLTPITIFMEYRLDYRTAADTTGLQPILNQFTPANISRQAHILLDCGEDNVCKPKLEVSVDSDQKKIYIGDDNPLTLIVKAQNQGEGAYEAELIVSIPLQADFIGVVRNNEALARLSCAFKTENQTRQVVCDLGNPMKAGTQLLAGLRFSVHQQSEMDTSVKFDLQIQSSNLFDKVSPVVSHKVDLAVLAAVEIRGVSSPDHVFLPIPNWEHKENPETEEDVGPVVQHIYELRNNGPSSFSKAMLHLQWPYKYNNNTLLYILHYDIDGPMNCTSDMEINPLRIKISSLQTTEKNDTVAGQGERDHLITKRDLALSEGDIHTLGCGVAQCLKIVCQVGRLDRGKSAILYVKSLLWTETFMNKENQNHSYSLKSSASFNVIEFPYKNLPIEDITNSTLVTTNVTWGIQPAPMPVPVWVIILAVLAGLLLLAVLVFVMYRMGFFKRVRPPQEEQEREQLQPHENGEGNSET
Sequence of human integrin αvβ5 (P18084 24-799): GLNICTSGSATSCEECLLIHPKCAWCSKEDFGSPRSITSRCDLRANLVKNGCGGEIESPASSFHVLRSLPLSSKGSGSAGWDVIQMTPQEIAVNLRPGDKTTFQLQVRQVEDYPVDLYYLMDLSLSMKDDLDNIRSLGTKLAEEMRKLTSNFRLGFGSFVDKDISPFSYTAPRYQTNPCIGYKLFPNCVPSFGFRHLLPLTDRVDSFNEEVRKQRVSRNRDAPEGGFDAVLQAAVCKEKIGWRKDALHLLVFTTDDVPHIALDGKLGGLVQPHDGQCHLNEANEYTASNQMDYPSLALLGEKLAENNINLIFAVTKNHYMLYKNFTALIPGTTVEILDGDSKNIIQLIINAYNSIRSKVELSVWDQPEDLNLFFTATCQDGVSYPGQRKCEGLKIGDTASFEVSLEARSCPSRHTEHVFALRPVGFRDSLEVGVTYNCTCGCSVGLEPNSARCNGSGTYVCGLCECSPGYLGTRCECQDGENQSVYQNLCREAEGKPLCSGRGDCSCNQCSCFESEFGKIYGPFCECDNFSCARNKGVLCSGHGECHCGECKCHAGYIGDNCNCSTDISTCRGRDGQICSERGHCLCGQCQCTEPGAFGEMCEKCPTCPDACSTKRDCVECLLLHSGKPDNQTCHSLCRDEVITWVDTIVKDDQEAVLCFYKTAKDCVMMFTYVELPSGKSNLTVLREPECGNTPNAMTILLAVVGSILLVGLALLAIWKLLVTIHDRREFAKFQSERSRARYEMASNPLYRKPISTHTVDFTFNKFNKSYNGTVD

For the molecule `CC[C@H](C)[C@@H]1NC(=O)[C@@H](NC(=O)[C@H](CCCCN)NC(=O)[C@H](CCCCN)NC(=O)[C@@H](N)CCCCN)CCSCC(=O)NCC[C@@H](C(=O)N[C@@H](C)C(=O)O)NC(=O)[C@H](CCCNC(=N)N)NC(=O)[C@H](Cc2ccc(O)cc2)NC(=O)[C@H](CC(N)=O)NC(=O)[C@H](CC(=O)O)NC(=O)CNC(=O)[C@H](CCCNC(=N)N)NC(=O)[C@@H]2CCCN2C1=O` [Cyclic peptide 26, KKK-(Hcy)-IPRGDNYR(Dab(acetyl))A] (H-KKK[hCys]IPRGDNYR[Dab]A-OH; linker 4-13 via X2), the “Performance evaluation: Stability (residual rate of cyclic peptide after alkali treatment)” value in data set [1] is given as “A (The residual rate of the cyclic peptide is 70% or more.)”. For the same molecule, in data set [2] (setting [3]), the Kd lay within 50 to 100 nM.
`CC[C@H](C)[C@@H]1NC(=O)[C@@H](NC(=O)CNC(=O)[C@H](CCCCN)NC(=O)[C@H](CCCCN)NC(=O)[C@@H](N)CCCCN)C(C)(C)SCC(=O)NC[C@@H](C(=O)N[C@@H](C)C(=O)O)NC(=O)[C@H](CCCNC(=N)N)NC(=O)[C@H](Cc2ccccc2)NC(=O)[C@H]([C@@H](C)O)NC(=O)[C@H](CC(=O)O)NC(=O)CNC(=O)[C@H](CCCNC(=N)N)NC(=O)[C@@H]2CCCN2C1=O` [Cyclic peptide 128, KKKG-(Pen)-IPRGDTFR(Dap(acetyl))A] (H-KKKG[Pen]IPRGDTFR[Dap]A-OH; linker 5-14 via X2): the “Stability (molecule stability, residual rate of the cyclic peptide rank)” value in data set [1] was “B (The residual rate of the cyclic peptide is 50% or more and less than 70%.)”. The Kd in data set [2] (setting [4]) was below 50 nM.
Consider `CC[C@H](C)[C@@H]1NC(=O)[C@H](C)NC(=O)[C@@H](NC(=O)[C@H](CCCCN)NC(=O)[C@H](CCCCN)NC(=O)[C@@H](N)CCCCN)CCSCC(=O)NCC[C@@H](C(=O)N[C@@H](C)C(=O)O)NC(=O)[C@H](CCCNC(=N)N)NC(=O)[C@H](Cc2ccccc2)NC(=O)[C@H](CC(N)=O)NC(=O)[C@H](CC(=O)O)NC(=O)CNC(=O)[C@H](CCCNC(=N)N)NC(=O)[C@@H]2CCCN2C1=O` [Cyclic peptide 15, KKK-(Hcy)-AIPRGDNFR(Dab(acetyl))A] (H-KKK[hCys]AIPRGDNFR[Dab]A-OH; linker 4-14 via X2), for which, in data set [1], the “Performance evaluation: Stability (residual rate of cyclic peptide after alkali treatment)” value is given as “A (The residual rate of the cyclic peptide is 70% or more.)”. Moreover, the Kd in data set [2] (setting [3]) lay in the range of 50 to 100 nM.
Consider `CC[C@H](C)[C@@H]1NC(=O)[C@@H](NC(=O)CNC(=O)[C@H](CCCCN)NC(=O)[C@H](CCCCN)NC(=O)[C@@H](N)CCCCN)CCSCC(=O)NC[C@@H](C(=O)N[C@@H](C)C(=O)O)NC(=O)[C@H](CCCNC(=N)N)NC(=O)[C@H](Cc2ccccc2)NC(=O)[C@H]([C@@H](C)O)NC(=O)[C@H](CC(=O)O)NC(=O)CNC(=O)[C@H](CCCNC(=N)N)NC(=O)[C@@H]2CCCN2C1=O` [Cyclic peptide 114, KKKG-(Hcy)-IPRGDTFR(Dap(acetyl))A] (H-KKKG[hCys]IPRGDTFR[Dap]A-OH; linker 5-14 via X2), for which the “Stability (molecule stability, residual rate of the cyclic peptide rank)” value in data set [1] was “B (The residual rate of the cyclic peptide is 50% or more and less than 70%.)”. Besides, the Kd in data set [2] (setting [4]) was below 50 nM.
As for `CC(C)[C@@H]1NC(=O)[C@@H](NC(=O)[C@H](C)NC(=O)[C@H](CCCCN)NC(=O)[C@H](CCCCN)NC(=O)[C@@H](N)CCCCN)CCSCC(=O)NCC[C@@H](C(=O)NCC(=O)O)NC(=O)[C@H](C)NC(=O)[C@H](Cc2ccccc2)NC(=O)[C@H](CO)NC(=O)[C@H](CC(=O)O)NC(=O)CNC(=O)[C@H](CCCNC(=N)N)NC(=O)[C@@H]2CCCN2C1=O` [Cyclic peptide 97, KKKA-(Hcy)-VPRGDSFA(Dab(acetyl))G] (H-KKKA[hCys]VPRGDSFA[Dab]G-OH; linker 5-14 via X2), in data set [1], the “Performance evaluation: Stability (residual rate of cyclic peptide after alkali treatment)” value was “A (The residual rate of the cyclic peptide is 70% or more.)”. In addition, in data set [2] (setting [3]), the Kd is below 50 nM.
